Measured values reported in patent US7632838B2, “11-beta HSD1 inhibitors” (Wyeth, priority 2006, dated 2009).

Test system: not given
Test: not given
Conditions: not given
Work on `O=C(N1CCC(Oc2c(Cl)cccc2Cl)CC1)C12CC3CC(CC(C3)C1)C2` [Example 18D, Adamantan-1-yl-[4-(2,6-dichloro-phenoxy)-piperidin-1-yl]-methanone] yielded a melting point of 191 to 199 °C.

Target: T1, human 11 b-HSD1 (Homo sapiens, UniProt P28845)
T1 construct: expressed in transfected cells
T1 sequence (P28845 whole entry): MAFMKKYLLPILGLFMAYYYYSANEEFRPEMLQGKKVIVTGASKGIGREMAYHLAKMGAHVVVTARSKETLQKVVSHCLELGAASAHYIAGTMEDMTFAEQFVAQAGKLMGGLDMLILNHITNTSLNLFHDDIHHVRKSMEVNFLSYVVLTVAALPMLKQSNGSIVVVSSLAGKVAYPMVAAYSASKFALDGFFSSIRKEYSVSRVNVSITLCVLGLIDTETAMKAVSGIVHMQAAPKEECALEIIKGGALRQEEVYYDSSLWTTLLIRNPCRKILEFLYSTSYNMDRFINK
Test: cell-based assay, stable CHO cell line expressing human 11 b-HSD1 (cortisone to cortisol, DiscoverX HitHunter Cortisol Assay)
Conditions: 11βHSD1 inhibition; stated as 'less than about'; read-out: inhibition constant IC50
Description: Compounds described herein can be tested in a cell-based assay using a stable CHO cell line expressing human 11 b-HSD1. Cells are plated at 20,000 cells/well in 96 well plates and incubated overnight (12-16 hrs) at 37° C./5% CO2. Cells are treated with different concentration of compound in 90 microliter serum-free media and incubated for 30 minutes at 37° C./5% CO2. 10 ul of 5 micromolar cortisone (final concentration 500 nM) is then added to the cells and the plate is incubated at 37° C./5% CO2 for 120 minutes. 15 microliter of media is withdrawn and amount of cortisol in the media is measured using the DiscoverX HitHunter Cortisol Assay (DiscoverX corp, CA).
`CC(C)(C)c1ccc(S(=O)(=O)N2CCN(c3ncccc3Cl)CC2)cc1` [Example 2A, 1-[(4-tert-butylphenyl)sulfonyl]-4-(3-chloropyridin-2-yl)piperazine] gave an IC50 of less than 10 µM. Compound `O=S(=O)(c1ccc2ccccc2c1)N1CCN(c2ncccc2Cl)CC1` [Example 2B, 1-(3-chloropyridin-2-yl)-4-(2-naphthylsulfonyl)piperazine] has an IC50 of less than 10 µM. `O=S(=O)(c1ccccc1Cl)N1CCN(c2ncccc2Cl)CC1` [Example 2D, 1-[(2-chlorophenyl)sulfonyl]-4-(3-chloropyridin-2-yl)piperazine] showed an IC50 of less than 10 µM. `O=S(=O)(c1ccc(Cl)cc1)N1CCN(c2ncccc2Cl)CC1` [Example 2E, 1-[(4-chlorophenyl)sulfonyl]-4-(3-chloropyridin-2-yl)piperazine] showed an IC50 of less than 10 µM. In the case of `Cc1ccc(S(=O)(=O)N2CCN(c3ncccc3Cl)CC2)cc1` [Example 2F, 1-(3-chloropyridin-2-yl)-4-[(4-methylphenyl)sulfonyl]piperazine], the IC50 is reported as less than 10 µM. `COc1ccc(S(=O)(=O)N2CCN(c3ncccc3Cl)CC2)cc1` [Example 2G, 1-(3-chloropyridin-2-yl)-4-[(4-methoxyphenyl)sulfonyl]piperazine] showed an IC50 of less than 10 µM. `O=S(=O)(c1ccc(-c2ccccc2)cc1)N1CCN(c2ncccc2Cl)CC1` [Example 2H, 1-(biphenyl-4-ylsulfonyl)-4-(3-chloropyridin-2-yl)piperazine] showed an IC50 of less than 10 µM. With `O=S(=O)(Cc1ccccc1)N1CCN(c2ncccc2Cl)CC1` [Example 2I, 1-(benzylsulfonyl)-4-(3-chloropyridin-2-yl)piperazine] the IC50 was less than 10 µM. With `O=S(=O)(c1ccc(C(F)(F)F)cc1Br)N1CCN(c2ncccc2Cl)CC1` [Example 2J, 1-{[2-bromo-4-(trifluoromethyl)phenyl]sulfonyl}-4-(3-chloropyridin-2-yl)piperazine] the IC50 was less than 10 µM. `C[C@H]1CN(C(=O)OCc2ccccc2)C[C@H](C)N1S(=O)(=O)c1ccc(C(C)(C)C)cc1` [Example 5, Benzyl (3S,5S)-4-[(4-tert-butylphenyl)sulfonyl]-3,5-dimethylpiperazine-1-carboxylate] gave an IC50 of less than 10 µM. Compound `C[C@H]1CN(c2ncccc2Cl)C[C@H](C)N1S(=O)(=O)c1ccc(C(C)(C)C)cc1` [Example 6, (2S,6S)-1-[(4-tert-butylphenyl)sulfonyl]-4-(3-chloropyridin-2-yl)-2,6-dimethylpiperazine] has an IC50 of less than 10 µM. `O=S(=O)(c1ccc2ccccc2c1)N1CCN(c2ccc(F)cc2C(F)(F)F)CC1` [Example 9F, 1-[4-fluoro-2-(trifluoromethyl)phenyl]-4-(2-naphthylsulfonyl)piperazine] showed an IC50 of less than 10 µM. In the case of `O=S(=O)(c1ccc(Cl)c(Cl)c1)N1CCN(c2ncccc2F)CC1` [Example 13A, 1-[(3,4-dichlorophenyl)sulfonyl]-4-(3-fluoropyridin-2-yl)piperazine], the IC50 is reported as less than 10 µM. With `N#Cc1cccnc1N1CCN(S(=O)(=O)c2ccc(Cl)c(Cl)c2)CC1` [Example 13B, 2-{4-[(3,4-dichlorophenyl)sulfonyl]piperazin-1-yl}nicotinonitrile] the IC50 was less than 10 µM. With `O=[N+]([O-])c1cccnc1N1CCN(S(=O)(=O)c2ccc(Cl)c(Cl)c2)CC1` [Example 13C, 1-[(3,4-dichlorophenyl)sulfonyl]-4-(3-nitropyridin-2-yl)piperazine] the IC50 was less than 10 µM.
